The results in this text go back to US9714231B2, “Pyrrolidine GPR40 modulators” (BRISTOL-MYERS SQUIBB COMPANY, priority 2012, dated 2017).

Counter-ions that a name gives are not always drawn.

In the assay the target is human GPR40 (Homo sapiens, UniProt O14842). Kind of assay: FDSS-based intracellular calcium assay (Human GRP40 in vitro assay). To be noted: cells expressing GPR40, intracellular Ca2+ response, FDSS reader; read-out: hGPR40 EC50. In kind it is cell-based. More on the design: 3xFLAG; expressed in transfected cells. As for the experimental part:
To conduct the fluorescent imaging plate reader (FLIPR)-based calcium flux assay to measure intracellular Ca^2+ response, cells expressing GPR40 are plated on 384 well plates (BD BIOCOAT® #356697) at a density of 20,000 cells/20 μL medium per well in phenol red and serum-free DMEM (GIBCO® #21063-029) and incubated overnight. Using BD kit #s 80500-310 or -301, the cells are incubated with 20 μL per well of Hank's buffered salt solution with 1.7 mM probenecid and Fluo-3 at 37° C. for 30 min. Compounds are dissolved in DMSO and diluted to desired concentrations with assay buffer and added to the cells as 3× solution (20 μL per well). Run fluorescence/luminescence reader FDSS (Hamamatsu) to read intracellular Ca^2+ response.

human GPR40, sequence (O14842 whole entry): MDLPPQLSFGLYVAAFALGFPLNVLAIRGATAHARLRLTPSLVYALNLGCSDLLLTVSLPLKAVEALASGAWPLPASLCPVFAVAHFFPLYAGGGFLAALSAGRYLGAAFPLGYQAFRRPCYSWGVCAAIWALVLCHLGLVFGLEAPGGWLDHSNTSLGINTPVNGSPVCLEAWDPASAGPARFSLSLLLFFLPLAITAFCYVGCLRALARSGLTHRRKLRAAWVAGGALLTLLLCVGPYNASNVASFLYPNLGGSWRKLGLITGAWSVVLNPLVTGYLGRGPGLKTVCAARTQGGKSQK

One may read the EC50 as the concentration that produces a half-maximal response. For the compound `COc1ccc(F)c(N2CCC(Oc3ccc(N4CC(F)(F)C[C@@H]4CC(=O)O)cc3)CC2)c1` [Example 5, (S)-2-(4,4-Difluoro-1-(4-((1-(2-fluoro-5-methoxyphenyl)piperidin-4-yl)oxy)phenyl)pyrrolidin-2-yl)acetic acid, TFA], the EC50 is 66 nM.

On to `COc1ccc(F)c(N2CCC(Oc3ccc(N4C[C@H](Oc5ccccc5)C[C@@H]4CC(=O)O)cc3)CC2)c1` [Example 6, 2-((2R,4R)-1-(4-((1-(2-Fluoro-5-methoxyphenyl)piperidin-4-yl)oxy)phenyl)-4-phenoxypyrrolidin-2-yl)acetic acid, HCl], for which the EC50 came out at 190 nM. As to `COc1ccc(F)c(N2CCC(Oc3ccc(N4C[C@H](Cc5ccccc5)C[C@@H]4CC(=O)O)cc3)CC2)c1` [Example 7, 2-((2R,4R)-4-Benzyl-1-(4-((1-(2-fluoro-5-methoxyphenyl)piperidin-4-yl)oxy)phenyl)pyrrolidin-2-yl)acetic acid, HCl], the EC50 was 320 nM. Turning to `COc1ccc(F)c(N2CCC(Oc3ccc(N4C[C@H](Cc5ccccc5)C[C@H]4CC(=O)O)cc3)CC2)c1` [Example 8, 2-((2S,4R)-4-Benzyl-1-(4-((1-(2-fluoro-5-methoxyphenyl)piperidin-4-yl)oxy)phenyl)pyrrolidin-2-yl)acetic acid, HCl], the EC50 worked out at 420 nM. In the case of `COc1ccc(F)c(N2CCC(N(C)c3ccc(N4C[C@H](C(F)(F)F)C[C@@H]4CC(=O)O)cc3)CC2)c1` [Example 9, 2-((2R,4R)-1-(4-((1-(2-Fluoro-5-methoxyphenyl)piperidin-4-yl)(methyl)amino)phenyl)-4-(trifluoromethyl)pyrrolidin-2-yl)acetic acid, TFA] it was 290 nM; in that of `COc1ccc(F)c(N2CC[C@H](COc3ccc(N4C[C@H](C(F)(F)F)C[C@@H]4CC(=O)O)cc3)C2)c1` [Example 10, 2-((2R,4R)-1-(4-(((S)-1-(2-Fluoro-5-methoxyphenyl)pyrrolidin-3-yl)methoxy)phenyl)-4-(trifluoromethyl)pyrrolidin-2-yl)acetic acid, HCl], 940 nM. On to `COc1ccc(F)c(N2CC[C@@H](COc3ccc(N4C[C@H](C(F)(F)F)C[C@@H]4CC(=O)O)cc3)C2)c1` [Example 11, 2-((2R,4R)-1-(4-(((R)-1-(2-Fluoro-5-methoxyphenyl)pyrrolidin-3-yl)methoxy)phenyl)-4-(trifluoromethyl)pyrrolidin-2-yl)acetic acid, HCl], for which the EC50 is 630 nM.

Consider `COc1ccc(F)c(N2CCC(Oc3ccc(N4C[C@H](OC)C[C@@H]4CC(=O)O)cc3F)CC2)c1` [Example 15, 2-((2R,4R)-1-(3-Fluoro-4-((1-(2-fluoro-5-methoxyphenyl)piperidin-4-yl)oxy)phenyl)-4-methoxypyrrolidin-2-yl)acetic acid, HCl], for which the EC50 worked out at 290 nM. The result for `COc1cccc(N2CCC(Oc3ccc(N4C[C@H](C(F)(F)F)C[C@@H]4CC(=O)O)cc3)CC2)c1` [Example 19, 2-((2R,4R)-1-(4-((1-(3-Methoxyphenyl)piperidin-4-yl)oxy)phenyl)-4-(trifluoromethyl)pyrrolidin-2-yl)acetic acid, HCl] reads 680 nM. As to `O=C(O)C[C@H]1C[C@@H](C(F)(F)F)CN1c1ccc(OC2CCN(c3ccccc3F)CC2)cc1` [Example 20, 2-((2R,4R)-1-(4-((1-(2-Fluorophenyl)piperidin-4-yl)oxy)phenyl)-4-(trifluoromethyl)pyrrolidin-2-yl)acetic acid, TFA], the EC50 worked out at 750 nM.

For the compound `CCOc1cccc(N2CCC(Oc3ccc(N4C[C@H](C(F)(F)F)C[C@@H]4CC(=O)O)cc3)CC2)c1` [Example 21, 2-((2R,4R)-1-(4-((1-(3-Ethoxyphenyl)piperidin-4-yl)oxy)phenyl)-4-(trifluoromethyl)pyrrolidin-2-yl)acetic acid, HCl], the EC50 came to 850 nM. Turning to `O=C(O)C[C@H]1C[C@@H](C(F)(F)F)CN1c1ccc(OC2CCN(c3ccccc3)CC2)cc1` [Example 22, 2-((2R,4R)-1-(4-((l-Phenylpiperidin-4-yl)oxy)phenyl)-4-(trifluoromethyl)pyrrolidin-2-yl)acetic acid, HCl], the EC50 is 1800 nM. On to `COc1cc(N2CCC(Oc3ccc(N4C[C@H](OC)C[C@@H]4CC(=O)O)cc3)CC2)c(F)cc1Cc1ccccc1` [Example 23, 2-((2R,4R)-1-(4-((1-(4-Benzyl-2-fluoro-5-methoxyphenyl)piperidin-4-yl)oxy)phenyl)-4-methoxypyrrolidin-2-yl)acetic acid, TFA], for which the EC50 came to 3200 nM.

Take `O=C(O)C[C@H]1C[C@@H](C(F)(F)F)CN1c1ccc(OC2CCN(c3cccc(OC(F)(F)F)c3)CC2)cc1` [Example 24, 2-((2R,4R)-1-(4-((1-(3-(Trifluoromethoxy)phenyl)piperidin-4-yl)oxy)phenyl)-4-(trifluoromethyl)pyrrolidin-2-yl)acetic acid, HCl]: the EC50 is 4100 nM. `COc1ccc(F)c(N2CCC(Oc3ccc(N4C[C@H](F)C[C@@H]4CC(=O)O)cc3)C(C)C2)c1` (stereo partly drawn) [Example 25, 2-((2S,4R)-4-Fluoro-1-(4-((1-(2-fluoro-5-methoxyphenyl)-3-methylpiperidin-4-yl)oxy)phenyl)pyrrolidin-2-yl)acetic acid, TFA]: the EC50 is 77 nM. Regarding `CCc1cc(F)c(N2CCC(Oc3ccc(N4C[C@H](OC)C[C@@H]4CC(=O)O)cc3)CC2)cc1OC` [Example 29, 2-((2R,4R)-1-(4-((1-(4-Ethyl-2-fluoro-5-methoxyphenyl)piperidin-4-yl)oxy)phenyl)-4-methoxypyrrolidin-2-yl)acetic acid, TFA], the EC50 was found to be 1100 nM.

Regarding `COc1cc(N2CCC(Oc3ccc(N4C[C@H](OC)C[C@@H]4CC(=O)O)cc3)CC2)c(F)cc1CC(C)C` [Example 30, 2-((2R,4R)-1-(4-((1-(2-Fluoro-4-isobutyl-5-methoxyphenyl)piperidin-4-yl)oxy)phenyl)-4-methoxypyrrolidin-2-yl)acetic acid, TFA], the EC50 is 840 nM.

As to `CCc1c(OC)ccc(F)c1N1CCC(Oc2ccc(N3C[C@H](OC)C[C@@H]3CC(=O)O)cc2)CC1` [Example 31, 2-((2R,4R)-1-(4-((1-(2-Ethyl-6-fluoro-3-methoxyphenyl)piperidin-4-yl)oxy)phenyl)-4-methoxypyrrolidin-2-yl)acetic acid, TFA], the EC50 came to 1100 nM.

Regarding `COc1ccc(F)c(N2CCC(Oc3ccc(N4C[C@H](OC)C[C@@H]4CC(=O)O)cc3)CC2)c1Cc1ccccc1` [Example 32, 2-((2R,4R)-1-(4-((1-(2-Benzyl-6-fluoro-3-methoxyphenyl)piperidin-4-yl)oxy)phenyl)-4-methoxypyrrolidin-2-yl)acetic acid, TFA], the EC50 worked out at 1700 nM.

`COc1ccc(F)c(N2CCC(N(C)c3ccc(N4C[C@H](OC)C[C@@H]4CC(=O)O)cn3)CC2)c1` [Example 37, 2-((2R,4R)-1-(6-((1-(2-Fluoro-5-methoxyphenyl)piperidin-4-yl)(methyl)amino)pyridin-3-yl)-4-methoxypyrrolidin-2-yl)acetic acid, HCl]: the EC50 is 3200 nM. As to `CCOc1ccc(F)c(N2CCC(Oc3ccc(N4C[C@H](c5ccccc5)C[C@@H]4CC(=O)O)cc3)C(C)C2)c1` (stereo partly drawn) [Example 41, 2-((2R,4S)-1-(4-(((3,4-trans)-1-(5-Ethoxy-2-fluorophenyl)-3-methylpiperidin-4-yl)oxy)phenyl)-4-phenylpyrrolidin-2-yl)acetic acid, HCl], the EC50 was 230 nM. With `CCOc1ccc(F)c(N2[C@H](C)C[C@H](Oc3ccc(N4C[C@H](C(F)(F)F)C[C@@H]4CC(=O)O)cc3)C[C@@H]2C)c1` [Example 42, 2-((2R,4R)-1-(4-(((2R,4R,6S)-1-(5-Ethoxy-2-fluorophenyl)-2,6-dimethylpiperidin-4-yl)oxy)phenyl)-4-(trifluoromethyl)pyrrolidin-2-yl)acetic acid, HCl], the EC50 was 240 nM.

With `CCOc1ccc(F)c(N2CCC(Oc3ccc(N4C[C@H](n5cnnn5)C[C@@H]4CC(=O)O)cc3)CC2)c1` [Example 45, 2-((2R,4R)-1-(4-((1-(5-Ethoxy-2-fluorophenyl)piperidin-4-yl)oxy)phenyl)-4-(1H-tetrazol-1-yl)pyrrolidin-2-yl)acetic acid, HCl], the EC50 was 1900 nM. Consider `CCOc1ccc(F)c(N2CCC(Oc3ccc(N4C[C@@H](OCc5ccccc5)C[C@@H]4CC(=O)O)cc3)CC2)c1` [Example 46, 2-((2R,4S)-4-(Benzyloxy)-1-(4-((1-(5-ethoxy-2-fluorophenyl)piperidin-4-yl)oxy)phenyl)pyrrolidin-2-yl)acetic acid, HCl], for which the EC50 worked out at 650 nM. In the case of `COc1ccc(F)c(N2CCC(Oc3ccc(N4C[C@H](C(F)(F)F)C[C@@H]4CC(=O)O)cn3)CC2)c1` [Example 49, 2-((2R,4R)-1-(6-((1-(2-Fluoro-5-methoxyphenyl)piperidin-4-yl)oxy)pyridin-3-yl)-4-(trifluoromethyl)pyrrolidin-2-yl)acetic acid], the EC50 stood at 280 nM. With `COc1ccc(F)c(N2CCC(Oc3ccc(N4C[C@H](C(F)(F)F)C[C@H]4CC(=O)O)cn3)CC2)c1` [Example 50, 2-((2S,4R)-1-(6-((1-(2-Fluoro-5-methoxyphenyl)piperidin-4-yl)oxy)pyridin-3-yl)-4-(trifluoromethyl)pyrrolidin-2-yl)acetic acid], the EC50 came out at 1500 nM.

As to `COc1ccc(F)c(N2C[C@@H](C)[C@H](Oc3ccc(N4C[C@H](OC)C[C@@H]4CC(=O)O)cc3)[C@@H](C)C2)c1` [Example 55, 2-((2R,4R)-1-(4-(((3S,4R,5R)-1-(2-Fluoro-5-methoxyphenyl)-3,5-dimethylpiperidin-4-yl)oxy)phenyl)-4-methoxypyrrolidin-2-yl)acetic acid, HCl], the EC50 amounted to 980 nM.
